Experimental data taken from ChEMBL document CHEMBL5120927, “LEGO-Lipophosphonoxins: A Novel Approach in Designing Membrane Targeting Antimicrobials” (J Med Chem, 2022).

Columns and labels:
Format in all cases: functional
Staphylococcus aureus [1] = test: Antibacterial activity against wild type methicillin resistant Staphylococcus aureus 5017/C assessed as reduction in microbial growth incubated for 24 hrs by microdilution assay
Staphylococcus aureus [2] = test: Antibacterial activity against antibiotic resistant Staphylococcus aureus 78/CF assessed as reduction in microbial growth incubated for 24 hrs by microdilution assay
Staphylococcus aureus [3] = test: Antibacterial activity against antibiotic resistant Staphylococcus aureus 4883/C assessed as reduction in microbial growth incubated for 24 hrs by microdilution assay
Staphylococcus aureus [4] = test: Antibacterial activity against antibiotic resistant Staphylococcus aureus 4463/A assessed as reduction in microbial growth incubated for 24 hrs by microdilution assay
Staphylococcus aureus [5] = test: Antibacterial activity against antibiotic resistant Staphylococcus aureus 4504/A assessed as reduction in microbial growth incubated for 24 hrs by microdilution assay
Staphylococcus aureus [6] = test: Antibacterial activity against wild type methicillin resistant Staphylococcus aureus 4561/A assessed as reduction in microbial growth incubated for 24 hrs by microdilution assay
Staphylococcus aureus [7] = test: Antibacterial activity against antibiotic resistant Staphylococcus aureus 4738/B assessed as reduction in microbial growth incubated for 24 hrs by microdilution assay
Staphylococcus aureus [8] = test: Antibacterial activity against antibiotic resistant Staphylococcus aureus 5079/C assessed as reduction in microbial growth incubated for 24 hrs by microdilution assay
Staphylococcus aureus [9] = test: Antibacterial activity against antibiotic resistant Staphylococcus aureus 4461/A assessed as reduction in microbial growth incubated for 24 hrs by microdilution assay
Staphylococcus aureus [10] = test: Antibacterial activity against antibiotic resistant Staphylococcus aureus 4717/B assessed as reduction in microbial growth incubated for 24 hrs by microdilution assay
Staphylococcus aureus [11] = test: Antibacterial activity against antibiotic resistant Staphylococcus aureus 4904/C assessed as reduction in microbial growth incubated for 24 hrs by microdilution assay
Staphylococcus aureus [12] = test: Antibacterial activity against antibiotic resistant Staphylococcus aureus 4482/A assessed as reduction in microbial growth incubated for 24 hrs by microdilution assay
Staphylococcus aureus [13] = test: Antibacterial activity against antibiotic resistant Staphylococcus aureus 4502/A assessed as reduction in microbial growth incubated for 24 hrs by microdilution assay
Staphylococcus aureus [14] = test: Antibacterial activity against antibiotic resistant Staphylococcus aureus 4460/A assessed as reduction in microbial growth incubated for 24 hrs by microdilution assay
Staphylococcus aureus [15] = test: Antibacterial activity against antibiotic resistant Staphylococcus aureus 4679/B assessed as reduction in microbial growth incubated for 24 hrs by microdilution assay
Staphylococcus aureus [16] = test: Antibacterial activity against antibiotic resistant Staphylococcus aureus 77/CF assessed as reduction in microbial growth incubated for 24 hrs by microdilution assay
Staphylococcus aureus [17] = test: Antibacterial activity against antibiotic resistant Staphylococcus aureus 4788/B assessed as reduction in microbial growth incubated for 24 hrs by microdilution assay
Staphylococcus aureus [18] = test: Antibacterial activity against antibiotic resistant Staphylococcus aureus 4740/B assessed as reduction in microbial growth incubated for 24 hrs by microdilution assay
Staphylococcus aureus [19] = test: Antibacterial activity against antibiotic resistant Staphylococcus aureus 4557/A assessed as reduction in microbial growth incubated for 24 hrs by microdilution assay
Staphylococcus aureus [20] = test: Antibacterial activity against wild type methicillin resistant Staphylococcus aureus 4968/C assessed as reduction in microbial growth incubated for 24 hrs by microdilution assay
Staphylococcus aureus [21] = test: Antibacterial activity against antibiotic resistant Staphylococcus aureus 4515/A assessed as reduction in microbial growth incubated for 24 hrs by microdilution assay
Staphylococcus aureus [22] = test: Antibacterial activity against antibiotic resistant Staphylococcus aureus 4880/C assessed as reduction in microbial growth incubated for 24 hrs by microdilution assay
Staphylococcus aureus [23] = test: Antibacterial activity against antibiotic resistant Staphylococcus aureus 4566/A assessed as reduction in microbial growth incubated for 24 hrs by microdilution assay
Staphylococcus aureus [24] = test: Antibacterial activity against antibiotic resistant Staphylococcus aureus 4862/C assessed as reduction in microbial growth incubated for 24 hrs by microdilution assay

**Q.** For CC1(C)S[C@@H]2[C@H](NC(=O)Cc3ccccc3)C(=O)N2[C@H]1C(=O)O [PENICILLIN G], which MIC (Staphylococcus aureus [1]) is on record?
**A.** > 4 µg/mL

**Q.** What about the MIC (Staphylococcus aureus [2]) of the same molecule?
**A.** 0.25 µg/mL

**Q.** And the MIC (Staphylococcus aureus [3])?
**A.** 0.25 µg/mL

**Q.** What about the MIC (Staphylococcus aureus [4]) of the same molecule?
**A.** 0.25 µg/mL

**Q.** And the MIC (Staphylococcus aureus [5])?
**A.** 0.25 µg/mL

**Q.** And the MIC (Staphylococcus aureus [6])?
**A.** > 2 µg/mL

**Q.** What about the MIC (Staphylococcus aureus [7]) of the same molecule?
**A.** 1 µg/mL

**Q.** What about the MIC (Staphylococcus aureus [8]) of the same molecule?
**A.** 0.25 µg/mL

**Q.** What about the MIC (Staphylococcus aureus [9]) of the same molecule?
**A.** 1 µg/mL

**Q.** What about the MIC (Staphylococcus aureus [10]) of the same molecule?
**A.** 0.5 µg/mL

**Q.** What about the MIC (Staphylococcus aureus [11]) of the same molecule?
**A.** 0.25 µg/mL

**Q.** And the MIC (Staphylococcus aureus [12])?
**A.** 2 µg/mL

**Q.** What about the MIC (Staphylococcus aureus [13]) of the same molecule?
**A.** 0.25 µg/mL

**Q.** And the MIC (Staphylococcus aureus [14])?
**A.** 1 µg/mL

**Q.** What about the MIC (Staphylococcus aureus [15]) of the same molecule?
**A.** 0.5 µg/mL

**Q.** What about the MIC (Staphylococcus aureus [16]) of the same molecule?
**A.** 0.5 µg/mL

**Q.** What about the MIC (Staphylococcus aureus [17]) of the same molecule?
**A.** 0.25 µg/mL

**Q.** What about the MIC (Staphylococcus aureus [18]) of the same molecule?
**A.** 0.25 µg/mL

**Q.** And the MIC (Staphylococcus aureus [19])?
**A.** 0.25 µg/mL

**Q.** What about the MIC (Staphylococcus aureus [20]) of the same molecule?
**A.** > 4 µg/mL

**Q.** What about the MIC (Staphylococcus aureus [21]) of the same molecule?
**A.** 0.5 µg/mL

**Q.** What about the MIC (Staphylococcus aureus [22]) of the same molecule?
**A.** 0.25 µg/mL

**Q.** And the MIC (Staphylococcus aureus [23])?
**A.** 0.25 µg/mL

**Q.** What about the MIC (Staphylococcus aureus [24]) of the same molecule?
**A.** 1 µg/mL
